Source: patent publication US20230120597A1, “CO-AGONISTS AT GLP-1 AND GIP RECEPTORS SUITABLE FOR ORAL DELIVERY” (Novo Nordisk A/S, priority 2020, published 2023)
Read-outs that look alike come from different tables or passages of the source. Starred links: 1 amine or outer side, 2 acyl side, 3 side chain; linkers in the order of their positions; H or OH if unused. Non-standard residues stand in square brackets, D forms with d. Residues, ends and D or L forms follow the SMILES beside them. Groups on a side chain read outwards from the residue. *: point of attachment. C18 diacid = O=C(O)CCCCCCCCCCCCCCCCC(=O)*; γGlu = O=C(O)[C@H](CCC(=O)[*:2])N[*:1]; εLys = N[C@@H](CCCCN[*:1])C(=O)[*:2]; Aib = CC(C)(N)C(=O)O

Experiments:
human GIP receptor = target: T1, human GIP receptor (Homo sapiens, UniProt P48546); assay: In vitro functional potency, CRE luciferase reporter gene assay, whole BHK cells expressing hGIPR; assay type: cell-based; conditions: BHK CRE luc2P hGIPR cells
T1 construct: expressed in transfected cells; host or cells: BHK (parent line BHKTS13), clone BHK CRE luc2P hGIPR
T1 sequence (P48546 22-466): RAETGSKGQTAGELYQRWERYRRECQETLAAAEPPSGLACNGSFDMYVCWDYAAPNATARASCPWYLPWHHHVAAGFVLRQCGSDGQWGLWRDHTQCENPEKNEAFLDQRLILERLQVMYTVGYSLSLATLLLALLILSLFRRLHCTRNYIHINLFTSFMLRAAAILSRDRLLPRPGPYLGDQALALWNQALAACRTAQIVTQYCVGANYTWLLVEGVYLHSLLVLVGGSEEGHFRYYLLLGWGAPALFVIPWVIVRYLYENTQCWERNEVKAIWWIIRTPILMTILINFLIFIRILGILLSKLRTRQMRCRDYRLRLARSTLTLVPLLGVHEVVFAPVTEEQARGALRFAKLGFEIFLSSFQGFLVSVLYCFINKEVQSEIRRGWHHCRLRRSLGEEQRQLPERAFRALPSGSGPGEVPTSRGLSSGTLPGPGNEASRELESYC

[1] = Pharmacokinetic study in minipigs after i.v. administration; conditions: female, Gottingen, minipig, in vivo, iv
Protocol: The purpose of this example is to determine the half-life in vivo of the derivatives of the present invention after i.v. administration to minipigs, i.e. the prolongation of their time in the body and thereby their time of action. This is done in a pharmacokinetic (PK) study, where the terminal half-life of the derivative in question is determined. By terminal half-life is generally meant the period of time it takes to halve a certain plasma concentration, measured after the initial distribution phase.
Female Gottingen minipigs were obtained from Ellegaard Gottingen Minipigs (Dalmose, Denmark) approximately 7-14 months of age and weighing from approximately 16-35 kg were used in the studies. The minipigs were housed individually and fed restrictedly once daily with SDS minipig diet (Special Diets Services, Essex, UK).
After at 3 weeks of acclimatisation two permanent central venous catheters were implanted in vena cava caudalis in each animal. […]
Plasma was pipetted into Micronic tubes on dry ice and kept at −20° C. until analysed for plasma concentration of the compounds using ELISA, or a similar antibody-based assay, or LCMS. Individual plasma concentration-time profiles were analysed by a non-compartmental model in Phoenix WinNonLin ver. […] (Pharsight Inc., Mountain View, Calif., USA), and the resulting terminal half-lives (harmonic mean) determined.

SMILES: CC[C@H](C)[C@H](NC(=O)[C@H](Cc1ccccc1)NC(=O)[C@H](CCC(=O)O)NC(=O)[C@H](CCCNC(=N)N)NC(=O)[C@H](C)NC(=O)[C@H](C)NC(=O)[C@H](CCC(N)=O)NC(=O)[C@H](CCCCNC(=O)[C@@H](N)CCCCNC(=O)[C@@H](N)CCCCNC(=O)CC[C@H](NC(=O)CCCCCCCCCCCCCCCCC(=O)O)C(=O)O)NC(=O)[C@H](CCC(=O)O)NC(=O)[C@H](CC(C)C)NC(=O)[C@H](CC(C)C)NC(=O)[C@@H](NC(=O)[C@H](CO)NC(=O)[C@H](Cc1ccc(O)cc1)NC(=O)[C@H](CC(=O)O)NC(=O)[C@H](CO)NC(=O)[C@@H](NC(=O)[C@H](Cc1ccccc1)NC(=O)[C@@H](NC(=O)CNC(=O)[C@H](CCC(=O)O)NC(=O)C(C)(C)NC(=O)[C@@H](N)Cc1ccc(O)cc1)[C@@H](C)O)[C@@H](C)O)[C@@H](C)CC)C(=O)N[C@@H](CC(N)=O)C(=O)N[C@@H](Cc1c[nH]c2ccccc12)C(=O)N[C@@H](CC(C)C)C(=O)N[C@@H](CC(C)C)C(=O)N[C@@H](C)C(=O)NCC(=O)NCC(=O)N1CCC[C@H]1C(=O)N[C@@H](CO)C(=O)N[C@@H](CO)C(=O)NCC(=O)N[C@@H](C)C(=O)N1CCC[C@H]1C(=O)N1CCC[C@H]1C(=O)N1CCC[C@H]1C(=O)N[C@@H](CO)C(=O)O [Compound No. 15] (H-Y[Aib]EGTFTSDYSILLEK([εLys-εLys-γGlu-C18 diacid])QAAREFINWLLAGGPSSGAPPPS-OH)
- EC50 (human GIP receptor; 0% HSA, read-out: hGIPR, CRE Luc 0% HSA EC50): 0.0071 nM
- EC50 (human GIP receptor; hGIPR, CRE Luc 1% HSA EC50, 1% HSA): 0.138 nM
- half-life [1]: 36 h
